Assay results published in patent US7635788B2, “Alpha-amino acid derivatives with antiinflammatory activity” (Italfarmaco SpA, priority 2004, dated 2009).
pIC50: −log10 of the molar value.

Assays:
[1] = test system: TNFα production by peripheral blood mononucleocytes stimulated with LPS; experiment: Inhibition of TNFα production by human monocytes stimulated with LPS; format: cell-based; conditions: LPS 10 ng/ml, 24 hours, ELISA
Experimental: The compounds were dissolved in DMSO at a final concentration of 10 mM.
The solutions for the assay were prepared by diluting the mother solutions in RPMI 1640 with the addition of 1% FCS and 0.01% DMSO and were filtered with 0.2 μm filters.
The peripheral blood mononucleocytes were obtained from blood from healthy donors by separation in a Ficoll-Hypaque gradient [C. G. Figdor, et al. Blood, 1982, 60: 46-53]. The cells were sown in 96-well plates, at a concentration of approx. 500,000 cells per well, suspended in RPMI 1640 containing 1% FCS and were incubated at 37° C. in the presence of different concentrations (from 10^−6 to 10^−11M) of the compounds to be investigated. After 1 hour, LPS was added (at a final concentration of 10 ng/ml; obtained from E. coli 055:B5) and the plates were incubated at 37° C. for a further 24 hours. At the end of this period, the supernatants were collected and used for the determination of TNFα content by means of ELISA (DuoSet ELISA kit; R&D Systems, Minneapolis, Minn., USA).
The concentration of TNFα was calculated using a calibration curve and the IC50 values (the concentration which brings about 50% inhibition of the production of the cytokine) were calculated from the curve obtained by plotting the percentage inhibition values for each individual concentration of the compound under investigation.

[2] = test system: human hepatoma cell line Hep-G2; experiment: Cytotoxicity towards tumour cells in vitro (Cell Titer 96 formazane colorimetric assay); format: cell-based; conditions: 48 h, percentage inhibition of the formation of formazane relative to the control
Experimental: The cytotoxicity of some compounds described in the preceding Examples was evaluated in vitro on human hepatoma cell line Hep-G2, by means of a commercial colorimetric method (Cell Titer 96® Aque ous One Solution Cell Proliferation Assay—Promega); the method determines the number of viable cells on the basis of their capacity to metabolise a tetrazolium salt producing formazane. The quantity of formazane produced is proportional to the number of viable cells.
The Hep-G2 cells are distributed 96 well microplates at a density of 4×10^4 cells/well (100 μl), in M199 medium containing 10% foetal bovine serum and supplements (complete medium).
After 24 hours' incubation (37° C., 5% CO2, 90% humidity), the cells are washed once and the medium is replenished with 200 μl of complete medium containing the substances to be tested at the final concentration of 10^−5, 10^−6 and 10^−7M. The test is performed in triplicate.
The plates are incubated for a further 48 h, at the end of which 100 μl of medium are removed and 20 μl/well of staining solution are added in accordance with the supplier's instructions. Optical density (λ=490 nm) is read after 1 hour's incubation at 37° C. using a plate reader (Victor2—Wallac Perkin Elmer).

Row | SMILES | pIC50 ([1]; Monocyte) | Cytotoxicity at 10^−5 M [2] [%] | Cytotoxicity at 10^−6 M [2] [%] | pIC50 [1]
1 | O=C(NO)c1ccc(NC(=O)[C@@H](Cc2ccc3ccccc3c2)NC(=O)c2ccccc2)cc1 [Example 1a, 4-(2(R)-Benzoylamino-3-naphthalen-2-yl-propionylamino)-N-hydroxy-benzamide] | 8.52 | 75.2 | 22.6 | –
2 | CC(=O)N[C@H](Cc1ccc2ccccc2c1)C(=O)Nc1ccc(C(=O)NO)cc1 [Example 2b, 4-(2(R)-Acetylamino-3-naphthalen-2-yl-propionylamino)-N-hydroxy-benzamide] | 7.29 | 48.3 | 10.6 | –
3 | CC(=O)N[C@H](C(=O)Nc1ccc(C(=O)NO)cc1)C1Cc2ccccc2C1 [Example 2c, 4-(2(S)-Acetylamino-2-indan-2-yl-acetylamino)-N-hydroxy-benzamide] | 7.25 | 78.3 | 28.5 | –
4 | CC(=O)N[C@@H](Cc1ccc2ccccc2c1)C(=O)Nc1ccc(C(=O)NO)cc1 [Example 2d, 4-(2(S)-Acetylamino-3-naphthalen-2-yl-propionylamino)-N-hydroxy-benzamide] | 8.36 | 56.2 | 9.6 | –
5 | CC(=O)N[C@@H](Cc1ccccc1)C(=O)Nc1ccc(C(=O)NO)cc1 [Example 2e, 4-(2(S)-Acetylamino-3-phenyl-propionylamino)-N-hydroxy-benzamide] | 7.90 | 17.1 | 13.3 | –
6 | O=C(NO)c1ccc(NC(=O)[C@H](Cc2ccc(-c3ccccc3)cc2)NC(=O)c2ccccc2)cc1 [Example 2f, 4-(2(S)-Benzoylamino-3-biphenyl-4-yl-propionylamino)-N-hydroxy-benzamide] | 7.14 | 81.6 | 22.7 | –
7 | O=C(NO)c1ccc(NC(=O)[C@H](Cc2ccc3ccccc3c2)NC(=O)c2ccccc2)cc1 [Example 2g, 4-(2(S)-Benzoylamino-3-naphthalen-2-yl-propionylamino)-N-hydroxy-benzamide] | 8.21 | 76.5 | 43.2 | –
8 | O=C(NO)c1ccc(NC(=O)[C@H](Cc2ccccc2)NC(=O)c2ccccc2)cc1 [Example 2h, 4-(2(S)-Benzoylamino-3-phenyl-propionylamino)-N-hydroxy-benzamide] | 7.95 | 77.4 | 31.2 | –
9 | CC(=O)N[C@@H](Cc1ccc(O)cc1)C(=O)Nc1ccc(C(=O)NO)cc1 [Example 2i, 4-[2(S)-Acetylamino-3-(4-hydroxy-phenyl)-propionylamino]-N-hydroxy-benzamide] | 7.88 | 12.2 | 15.7 | –
10 | CC(=O)N[C@@H](Cc1ccc(C(F)(F)F)cc1)C(=O)Nc1ccc(C(=O)NO)cc1 [Example 2j, 4-[2(S)-Acetylamino-3-(4-trifluoromethyl-phenyl)-propionylamino]-N-hydroxy-benzamide] | 8.34 | 39.3 | 15.8 | –
11 | O=C(NO)c1ccc(NC(=O)[C@H](Cc2ccc(O)cc2)NC(=O)c2ccccc2)cc1 [Example 2k, 4-[2(S)-Benzoylamino-3-(4-hydroxy-phenyl)-propionylamino]-N-hydroxy-benzamide] | 6.83 | 54.4 | 27.7 | –
12 | Nc1ccc(C(=O)N[C@H](Cc2ccc3ccccc3c2)C(=O)Nc2ccc(C(=O)NO)cc2)cc1 [Example 2l, 4-Amino-N-[1(R)-(4-hydroxycarbamoyl-phenylcarbamoyl)-2-naphthalen-2-yl-ethyl]-benzamide] | 7.53 | 61.9 | 14.4 | –
13 | Nc1ccc(C(=O)N[C@@H](Cc2ccc3ccccc3c2)C(=O)Nc2ccc(C(=O)NO)cc2)cc1 [Example 2m, 4-Amino-N-[1(S)-(4-hydroxycarbamoyl-phenylcarbamoyl)-2-naphthalen-2-yl-ethyl]-benzamide] | 7.57 | 72.4 | 24.5 | –
14 | O=C(NO)c1ccc(NC(=O)[C@@H](Cc2ccc3ccccc3c2)NC(=O)c2cncc(Br)c2)cc1 [Example 2n, 5-Bromo-N-[1(R)-(4-hydroxycarbamoyl-phenylcarbamoyl)-2-naphthalen-2-yl-ethyl]-nicotinamide] | 8.17 | 68.2 | 15.9 | –
15 | O=C(NO)c1ccc(NC(=O)[C@H](Cc2ccc(C(F)(F)F)cc2)NC(=O)c2cncc(Br)c2)cc1 [Example 2o, 5-Bromo-N-[1(S)-(4-hydroxycarbamoyl-phenylcarbamoyl)-2-(4-trifluoromethyl-phenyl)-ethyl]-nicotinamide] | 6.70 | 72.4 | 34.8 | –
16 | O=C(NO)c1ccc(NC(=O)[C@H](Cc2ccc(-c3ccccc3)cc2)NC(=O)c2cncc(Br)c2)cc1 [Example 2p, 5-Bromo-N-[1(S)-(4-hydroxycarbamoyl-phenylcarbamoyl)-2-biphenyl-4-yl-ethyl]-nicotinamide] | 7.38 | 61.7 | 10.5 | –
17 | O=C(NO)c1ccc(NC(=O)[C@H](Cc2ccc3ccccc3c2)NC(=O)c2cncc(Br)c2)cc1 [Example 2q, 5-Bromo-N-[1(S)-(4-hydroxycarbamoyl-phenylcarbamoyl)-2-naphthalen-2-yl-ethyl]-nicotinamide] | 7.64 | 53.9 | 11.7 | –
18 | O=C(NO)c1ccc(NC(=O)[C@@H](Cc2ccc3ccccc3c2)NC(=O)c2ccc3c(c2)OCO3)cc1 [Example 2r, N-[1(R)-(4-hydroxycarbamoyl-phenylcarbamoyl)-2-naphthalen-2-yl-ethyl]-amide of benzo[1,3]dioxole-5-carboxylic acid] | – | 72.5 | 16.6 | 8.77
19 | O=C(NO)c1ccc(NC(=O)[C@H](Cc2ccc(O)cc2)NC(=O)c2ccc3c(c2)OCO3)cc1 [Example 2s, N-[1(S)-(4-hydroxycarbamoyl-phenylcarbamoyl)-2-(4-hydroxy-phenyl)-ethyl]-amide of benzo[1,3]dioxole-5-carboxylic acid] | – | – | – | 6.00
20 | O=C(NO)c1ccc(NC(=O)[C@H](Cc2ccc3ccccc3c2)NC(=O)c2ccc3c(c2)OCO3)cc1 [Example 2t, N-[1(S)-(4-hydroxycarbamoyl-phenylcarbamoyl)-2-naphthalen-2-yl-ethyl]-amide of benzo[1,3]dioxole-5-carboxylic acid] | – | 79.3 | 48.5 | 8.32
21 | O=C(NO)c1ccc(NC(=O)[C@H](Cc2cccc(F)c2)NC(=O)c2ccc3c(c2)OCO3)cc1 [Example 2u, N-[1(S)-(4-hydroxycarbamoyl-phenylcarbamoyl)-2-(3-fluoro-phenyl)-ethyl]-amide of benzo[1,3]dioxole-5-carboxylic acid] | – | 62.9 | 12.9 | 8.17
22 | O=C(NO)c1ccc(NC(=O)[C@@H](Cc2ccc3ccccc3c2)NC(=O)c2ccc3ccccc3c2)cc1 [Example 2v, N-[1(R)-(4-hydroxycarbamoyl-phenylcarbamoyl)-2-naphthalen-2-yl-ethyl]-amide of naphthalene-2-carboxylic acid] | – | 69.4 | 11.8 | 7.77
23 | O=C(NO)c1ccc(NC(=O)[C@H](Cc2ccc(C(F)(F)F)cc2)NC(=O)c2ccc3ccccc3c2)cc1 [Example 2w, N-[1(S)-(4-hydroxycarbamoyl-phenylcarbamoyl)-2-(4-trifluoromethyl-phenyl)-ethyl]-amide of naphthalene-2-carboxylic acid] | – | 65.7 | 25.3 | 7.63
24 | O=C(NO)c1ccc(NC(=O)[C@H](Cc2ccccc2)NC(=O)c2ccc3ccccc3c2)cc1 [Example 2x, N-[1(S)-(4-hydroxycarbamoyl-phenylcarbamoyl)-2-phenyl-ethyl]-amide of naphthalene-2-carboxylic acid] | – | 77.3 | 15.3 | 8.07
